Assay results published in paper PMC5029699, “Landscape of activating cancer mutations in FGFR kinases and their differential responses to inhibitors in clinical use” (Oncotarget, 2016).

How the values were obtained:
[1] = test system: cancer cell lines with the FGFR3 S249C substitution; details: some cancer cell lines with FGFR3 S249C; cited from earlier work
[2] = test system: NIH3T3 cells expressing FGFR3 K650E; details: K650E NIH3T3 cells vs FGFR3TACC3-fusion cells, in words
Procedure: (§1) For the cell viability assay in the presence of FGFR inhibitors, NIH3T3 cells transfected with the stated FGFR3 variants were plated in 96-well plates, 1000 cells per well. Twenty-four hours later the cells were treated with various concentrations of kinase inhibitor. Forty-eight hours later, fresh inhibitor was added and the cells incubated for 72 hours. Cell viability was measured through the addition of CellTiter-Glo (Promega) and luminenscence measured with a standard luminometer plate reader. Data were normalised and fitted to a log(inhibitor) vs. response curve (three parameters) with GraphPad Prism.

[3] = test system: NIH3T3 cells expressing FGFR3 N540K; details: N540K NIH3T3 cells vs FGFR3TACC3-fusion cells, in words
Procedure: as §1

[4] = test system: NIH3T3 cells expressing FGFR3TACC3-fusion (WT KD); details: AZD4547 compared with JNJ42756493
Procedure: as §1

[5] = test system: cell line with introduced FGFR3 V555M mutation; design: method as in PMID 26097890; details: cell line originally responding to both drugs; cited from earlier work
[6] = test system: JHUEM-2 cancer cell line, FGFR2 mutation corresponding to N540K; design: method as in PMID 23908597; details: cited from earlier work

Compound	viability and proliferation of cancer cell lines [1]	effect of variant on inhibitor efficacy in cells [2]	effect of variant on inhibitor efficacy in cells [3]	difference between AZD4547 and JNJ42756493 cellular IC50s [4]	drug effect following introduction of FGFR3 V555M mutation [5]	drug response due to mutation corresponding to N540K in FGFR2 [6]
AZD4547	compromised	reduce efficacy	reduce efficacy	2-3 fold		
CCN(CC)CCCCNc1ncc2cc(-c3cc(OC)cc(OC)c3)c(NC(=O)NC(C)(C)C)nc2n1 [PD173074]					loss of efficacy	reduced sensitivity
